Measured values from patent US9517233B2, “Local cochlear application of statins for stimulating neurite regrowth in the cochlea” (Northwestern University, priority 2012, dated 2016).
Entries after “also recorded” stand apart in the source; their conditions may differ.

Legend:
[1] = tested on: spiral ganglion neurons; assay: In vitro phenotypic screening assay of neurite length in spiral ganglion cultures; assay type: cell-based, mouse; details: for lowest effective dose for stimulating neurite growth (neurite length dose response) / effect on neurite length: spiral ganglion cultures; for lowest effective dose for stimulating neurite growth (neurite length dose response): cumulative percent histograms of neurite length vs DMSO control, highest dose tested 25 μM for Pravastatin; for effect on neurite length at 10 μM: media containing compound at 10 μM, DMSO negative control, 4 replicate cultures; for effect on neurite length: compound in culture media
Text: The in vitro phenotypic screen for spiral ganglion neurons is designed to identify both survival promoting and neurite promoting compounds. The screening procedure focuses on the survival, neurite initiation and neurite elongation steps of the experimental model (FIG. 5A-C). […] Newborn mouse pups served as a source for preparing primary cultures of the spiral ganglia from 16 cochleas. From these cochleas, 192 cultures in a 384 well plate that enables screening of 45 compounds and 3 controls for each dissection.
The screening approach preferably uses automated imaging and computer assisted data analysis. […] Populations of neurites are measured and graphed as cumulative percent histograms of neurite length. In these graphs, a shift to the right means that the population had longer neurites.
CD-1 mice (Charles River Laboratories, Wilmington Mass. [US]), age newborn, were used for cultures that test neurite length; postnatal day 1-2 mice were used for cultures that test survival. Mice were anesthetized by cooling at −80° C. for 4 minutes and euthanized by aseptic decapitation.
Cultures were prepared by a modification of the procedure previously reported and modified (Whitlon et al., Neuroscience 138, 653-662 (2006); Lie et al., Neuroscience 169, 855-862 (2010); Whitlon et al. Neuroscience 146, 833-840 (2007); Whitlon et al., Neuroscience 161, 227-235 (2009)). To increase the number of cultures produced from one dissecting session while maintaining consistency in the preparations, the number of animals was increased to 8 (16 cochleas, a practical limit) and the volume of the cultures was decreased to 50 μl. Cells derived from the equivalent of […] ganglia were plated in each well. These changes allowed the material from each dissection session to be cultured in 192 wells of a standard 384 well plate. Each dissection session could accommodate 3 controls and 45 compounds in quadruplicate. The cochlear capsule was opened and the tissue was treated with Dispase, 5 units/ml. After washing, the cochlea was removed from its capsule. The cochlear epithelium, spiral ligament and stria were dissected away. […] Both were then diluted in medium and added to the wells 22 hours after plating. Cultures were fixed 24 hours later with 4% paraformaldehyde in 0.1M sodium phosphate buffer, pH 7.2 for 45 minutes. Conditions were tested in quadruplicate. […] Negative controls were the vehicles DMSO (0.17%) and water (0.17%).
Fixed cultures were immunolabeled for the neural βIII tubulin using the mouse monoclonal antibody TuJ1 and Alexa Fluor 594 tagged secondary antibody as described for immunofluorescent labeling (Whitlon et al. Neuroscience 161, 227-235 (2009)). Nuclei were visualized with Nuclear Yellow. The labeled cultures were preserved with one drop of DAKO fluorescent mounting medium in each well.
The immunolabeled 384 well plates were loaded into an Image Xpress automatic imager for image acquisition.

[2] = tested on: PTS noise exposed guinea pigs; assay: Guinea pig model of PTS, auditory brainstem response (ABR) thresholds after noise exposure; assay type: in vivo; details: left ear infused with 50 μM Fluvastatin, 250 μL over 28 days by miniosmotic pump, from noise exposure on; hearing measured in contralateral right ear
Text: A testing method with a guinea pig model of PTS was developed for this purpose. Compounds were introduced into the left ear of the subject with a cannula attached to a miniosmotic pump. Because the cannula is physically within the cochlea, it had the possibility of interfering with sound transfer in the cochlea, and thereby interfering with auditory brain response (ABR) measurements. For this reason, the compound was delivered via cannula to the left ear, but tested for its effect in the contralateral ear, taking advantage of the connection between cochlear fluids and the cerebral spinal fluid. Animals were subjected to an sound injury causing PTS. Fluvastatin was delivered in vivo to the left ear at 50 times the concentration that was effective for stimulating neurite growth in vitro and ABRs were evaluated in the contralateral, right cochleas. […] The compound was first evaluated for the ability to provide a protective effect from hearing loss attributed to high level noise, wherein the compound was delivered at the same time as the noise exposure and for 4 weeks thereafter. […]
Drug efficiency was tested in guinea pigs, 200-500 g in body weight. […] Baseline cochlear function was determined with auditory brainstem responses. Sound levels to evoke a visual ABR response were determined for pure tones at selected frequencies between 2 and 32 kHz and for acoustic clicks. […]

SMILES	lowest effective dose for stimulating neurite growth (neurite length dose response) [1] [µM]	effect on neurite length [1]	other results
CC(C)n1c(/C=C/[C@H](O)C[C@H](O)CC(=O)O)c(-c2ccc(F)cc2)c2ccccc21 (stereo in doubt) [Fluvastatin, (3S,5R,6E)-7-[3-(4-fluorophenyl)-1-(propan-2-yl)-1H-indol-2-yl]-3,5-dihydroxyhept-6-enoic acid]	1		protection from hearing loss / permanent threshold shift (ABR threshold change) [2]: effective protection by preventing hearing loss; also recorded: PTS injury could not be induced
CC(C)c1c(C(=O)Nc2ccccc2)c(-c2ccccc2)c(-c2ccc(F)cc2)n1CC[C@@H](O)C[C@@H](O)CC(=O)O [Atorvastatin, (3R,5R)-7-[2-(4-fluorophenyl)-3-phenyl-4-(phenylcarbamoyl)-5-(propan-2-yl)-1H-pyrrol-1-yl]-3,5-dihydroxyheptanoic acid]	10		
COCc1c(C(C)C)nc(C(C)C)c(/C=C/[C@@H](O)C[C@@H](O)CC(=O)O)c1-c1ccc(F)cc1 [Cerivastatin]	1		effect of geranylgeraniol on the statin's stimulation of neurite length ([1]; media containing both statin (Cerivastatin 10 μM or Fluvastatin 5 μM) and geranylgeraniol (10 μM)): effectively blocked the stimulatory effect; effect on neurite length at 10 μM [1]: increased neurite length; neurite growth compared with positive control H1152 ([1]; screen of NIH Clinical Collection, FIG. 11A): stimulated neurite growth as well as H1152
O=S(=O)(c1cccc2cnccc12)N1CCCNCC1 [Fasudil]		stimulated neurite length	
Cc1cncc2cccc(S(=O)(=O)N3CCCNC[C@@H]3C)c12 [H1152, 4-methyl-5-{[(2S)-2-methyl-1,4-diazepan-1-yl]sulfonyl}isoquinoline]		stimulate neurite length; also recorded: increased neurite lengths	
O=c1[nH]ccc2c(S(=O)(=O)N3CCCNCC3)cccc12 [Hydroxyl Fasudil]		stimulated neurite length	
CC[C@H](C)C(=O)O[C@H]1C[C@@H](C)C=C2C=C[C@H](C)[C@H](CC[C@@H]3C[C@@H](O)CC(=O)O3)[C@H]21 [Lovastatin, (1S,3R,7S,8S,8aR)-8-{2-[(2R,4R)-4-hydroxy-6-oxooxan-2-yl]ethyl}-3,7-dimethyl-1,2,3,7,8,8a-hexahydronaphthalen-1-yl (2S)-2-methylbutanoate]	5		
O=C(O)C[C@H](O)C[C@H](O)/C=C/c1c(C2CC2)nc2ccccc2c1-c1ccc(F)cc1 [Pitavastatin, (3R,5S,6E)-7-[2-cyclopropyl-4-(4-fluorophenyl)quinolin-3-yl]-3,5-dihydroxyhept-6-enoic acid]	2	increase neurite length; also recorded: effective up to the highest dose tested	measured lengths of neurites compared with positive control H1152 ([1]; Pitavastatin at 2 μM or higher, H1152 16.5 μM): as long or longer
CC[C@H](C)C(=O)O[C@H]1C[C@H](O)C=C2C=C[C@H](C)[C@H](CC[C@@H](O)C[C@@H](O)CC(=O)O)[C@H]21 [Pravastatin]	> 25		
CCC(C)(C)C(=O)O[C@H]1C[C@@H](C)C=C2C=C[C@H](C)[C@H](CC[C@@H]3C[C@@H](O)CC(=O)O3)[C@H]21 [Simvastatin, (1S,3R,7S,8S,8aR)-8-{2-[(2R,4R)-4-hydroxy-6-oxooxan-2-yl]ethyl}-3,7-dimethyl-1,2,3,7,8,8a-hexahydronaphthalen-1-yl 2,2-dimethylbutanoate]	5		
CC(C)=CCC/C(C)=C/CC/C(C)=C/CC/C(C)=C/CO [geranylgeraniol]			effect on neurite length at 10 μM [1]: no effect upon growth of neurite length
